test: Human HepG2 cell viability assay in 384 well format; assay type: toxicity, cell-based; design: dose 125 nL, time 70.5 hour; concentration not given beside the values; conditions: HepG2 cells, read-out: Inhibition

Going from `Cc1cnn(CCNCc2ccc(OCc3cccnc3)cc2)c1` to `Cc1cnn(CC(C)NCc2ccccc2OCc2cccnc2)c1` (stereo not given), the cytotoxicity at 70.5 h falls from -4.14% to -7.82%.

First: Cc1cc(C(=O)NCc2ccc(N3CCCC(C(N)=O)C3)cc2)on1 (stereo not given)
Second: Cc1cc(CN(C)C(=O)NCc2cccc(N3CCCC3=O)c2)no1
The cytotoxicity at 70.5 h of the first is higher: -3.31% for the first, -25.6% for the second.

Going from `Cc1nn(C)c(N(C)C)c1CNCc1ccccc1CO` to `Cc1nn(C)c(N(C)C)c1CNCc1cccc(Cn2cncn2)c1`, the cytotoxicity at 70.5 h falls from -0.166% to -3.12%.

First: O=C(c1ccc2c(c1)OCO2)N1CCCC(n2ccnc2)C1 (stereo not given)
Second: COc1cc(C(=O)N2CCCC(n3ccnc3)C2)cc2c1OCCO2 (stereo not given)
The cytotoxicity at 70.5 h of the first is higher: 10.2% for the first, -7.87% for the second.

Going from `CCc1ccsc1C(=O)N1CCN(CC(C)(C)O)CC1` to `CC(C)(O)CN1CCN(C(=O)c2sccc2C#N)CC1`, the cytotoxicity at 70.5 h rises from -5.61% to -3.64%.

Compared with `CN(C)CC1CN(Cc2coc(-c3ccccc3)n2)CCO1` (stereo not given), `Cc1cc(C)n(CC2CN(CC(=O)NCc3ccccn3)CCO2)n1` (stereo not given) is higher in cytotoxicity at 70.5 h: -5.29% for the first, -2.74% for the second.

Going from `Cc1cnn(CC2CCCN2Cc2noc(C(C)C)n2)c1` (stereo not given) to `Cc1cnn(CC2CCCN2Cc2noc(CC(C)C)n2)c1` (stereo not given), the cytotoxicity at 70.5 h rises from -5.54% to -0.847%.

Going from `Cc1cc(C(=O)N2CCCC2c2c(C)nn(C)c2C)no1` (stereo not given) to `Cc1nc(C2CCCN2C(=O)c2cc3c(s2)CCCC3)no1` (stereo not given), the cytotoxicity at 70.5 h rises from -10.1% to -3.98%.

Compared with `O=C(c1sccc1C1CC1)N1CCN(CC(F)(F)F)CC1`, `O=C(Cc1ccccc1F)N1CCN(Cc2noc(C3CC3)n2)CC1` is higher in cytotoxicity at 70.5 h: -1.63% for the first, 10.8% for the second.

Going from `O=C(c1cc(Cl)c2c(c1)OCO2)N1CCCC(n2cncn2)C1` (stereo not given) to `Cc1nc(C2CCCN(C(=O)c3cccc4c3OCCO4)C2)no1` (stereo not given), the cytotoxicity at 70.5 h rises from -4.61% to -1.54%.

First: Cc1cnn(CC2CCCN2Cc2noc(C(C)(C)C)n2)c1 (stereo not given)
Second: CCN1CCC(NC(=O)CN2CCCC2Cn2cc(C)cn2)CC1 (stereo not given)
The cytotoxicity at 70.5 h of the first is lower: -2.54% for the first, 0.649% for the second.

Going from `CCn1cnnc1CNC(=O)N1CCCC1` to `CC(C(=O)NCc1ccnc(N2CCCC2)c1)n1cncn1` (stereo not given), the cytotoxicity at 70.5 h falls from 5.61% to -1.47%.

First: Cc1cnn(CC(C)NCc2ccc(OCc3noc(C)n3)cc2)c1 (stereo not given)
Second: Cc1cnn(CC(C)NCc2ccc(OCc3nccn3C)cc2)c1 (stereo not given)
The cytotoxicity at 70.5 h of the first is higher: -0.0911% for the first, -5.96% for the second.

Compared with `Cc1cnn(CC(C)NCc2ccncc2)c1` (stereo not given), `Cc1cnn(CCNCc2nc(COc3ccc(F)cc3)no2)c1` is higher in cytotoxicity at 70.5 h: 0.737% for the first, 6.22% for the second.

Going from `Cc1cnn(CC2CCCCN2C(=O)Cc2cn3ccsc3n2)c1` (stereo not given) to `O=C(Cn1cnnn1)N1CCCCC1Cn1cccn1` (stereo not given), the cytotoxicity at 70.5 h rises from 11.4% to 17.9%.

Compared with `Cc1nnc2n1CCN(CCOc1cccc(C#N)c1)C2`, `c1ccc(-c2cnc(CN3CCn4c(nnc4C4CC4)C3)o2)cc1` is lower in cytotoxicity at 70.5 h: -4.21% for the first, -9.82% for the second.

Going from `CC(NCc1cc(F)ccc1F)c1ccc(OCC(=O)NC2CC2)cc1` (stereo not given) to `CC(NCc1cccc(Cl)c1)c1ccc(OCC(=O)NC2CC2)cc1` (stereo not given), the cytotoxicity at 70.5 h falls from -1.77% to -4.37%.

First: CC(Cc1ccc(Cl)cc1)NC(=O)Nc1cnn(CC(N)=O)c1 (stereo not given)
Second: Cc1ccccc1CC(C)NC(=O)Nc1cnn(CC(N)=O)c1 (stereo not given)
The cytotoxicity at 70.5 h of the first is lower: -8.4% for the first, -0.765% for the second.

First: CCN(Cc1nc2c(cnn2C)c(=O)[nH]1)c1cccc(C)c1
Second: CCN(Cc1nc2c(cnn2C)c(=O)[nH]1)c1ccc(F)cc1
The cytotoxicity at 70.5 h of the first is higher: 4.24% for the first, -3.68% for the second.

Compared with `COc1ccc(COCC(O)CNC(=O)Cc2ccc(C)cc2)cc1` (stereo not given), `COc1ccc(COCC(O)CNC(=O)c2ccc(C#N)cc2)cc1` (stereo not given) is lower in cytotoxicity at 70.5 h: -2.43% for the first, -5.39% for the second.

Compared with `COc1ccc(COCC(O)CNC(=O)c2ccc(C)c(F)c2)cc1` (stereo not given), `COc1ccc(COCC(O)CNC(=O)c2ccncc2)cc1` (stereo not given) is higher in cytotoxicity at 70.5 h: -1.89% for the first, -1.56% for the second.

First: c1cnn(CC2CN(c3ncnc4[nH]ccc34)CCO2)c1 (stereo not given)
Second: c1nc(N2CCOC(Cn3cncn3)C2)c2cc[nH]c2n1 (stereo not given)
The cytotoxicity at 70.5 h of the first is higher: -0.974% for the first, -6.11% for the second.

First: CCc1ocnc1C(=O)N1CCOC(c2nc(C)n[nH]2)C1 (stereo not given)
Second: CCc1nc2n(n1)CC(NCC(=O)Nc1cc(C)on1)CC2 (stereo not given)
The cytotoxicity at 70.5 h of the first is lower: -1.72% for the first, 12.5% for the second.

First: Cn1ccnc1CN1CCCN(C(=O)COC2CCCCC2)CC1
Second: CCn1ccnc1CN1CCCN(C(=O)COC2CCCCC2)CC1
The cytotoxicity at 70.5 h of the first is higher: 22.3% for the first, -3.09% for the second.

First: CC(C)n1ccnc1CN1CCCN(C(=O)CN(C)C2CC2)CC1
Second: CCc1noc(CN2CCN(C(=O)N(C)C)CC2)n1
The cytotoxicity at 70.5 h of the first is lower: -5.01% for the first, 20.5% for the second.

Going from `CCc1ccc(C(=O)N2CCN(CC(C)O)CC2)o1` (stereo not given) to `Cc1ccc(C(=O)N2CCN(CC(O)c3ccc(F)cc3)CC2)s1` (stereo not given), the cytotoxicity at 70.5 h falls from 2.04% to -6.7%.

Compared with `Cc1nc(C)n(CC2CCCN2CCc2cccs2)n1` (stereo not given), `Cc1cc(C)n(CC2CCCN2C(=O)CCCc2ccccn2)n1` (stereo not given) is lower in cytotoxicity at 70.5 h: 39.6% for the first, -5.04% for the second.

First: Clc1ccccc1-c1nc(CNCCn2cccn2)cs1
Second: Cc1ccc(-c2nc(CNCCn3cccn3)cs2)o1
The cytotoxicity at 70.5 h of the first is higher: -6.01% for the first, -7.84% for the second.

Compared with `CC(=O)N1CCCN(C(=O)CCc2c(C)noc2C)CC1`, `CC(C)c1noc(CCCC(=O)N2CCC(Cc3cccnc3)CC2)n1` is lower in cytotoxicity at 70.5 h: -16.4% for the first, -20.7% for the second.

Compared with `CCn1ccnc1CN1CCN(Cc2ccc(C#N)cc2)CC1`, `CC(C)c1ncc2c(n1)CN(Cc1ccc(C(N)=O)cc1)CC2` is lower in cytotoxicity at 70.5 h: 28.9% for the first, 24.1% for the second.

Compared with `CCOc1ccccc1OC1CCN(C(=O)c2cc[nH]n2)CC1`, `CCOC(=O)N1CCC(C(=O)c2cc(F)ccc2F)CC1` is lower in cytotoxicity at 70.5 h: -1.68% for the first, -8.51% for the second.

First: CC(NC(=O)N(C)Cc1ccsc1)c1ccc2c(c1)OCO2 (stereo not given)
Second: CC(C(=O)NCCOc1ccc2c(c1)OCO2)n1cncn1 (stereo not given)
The cytotoxicity at 70.5 h of the first is lower: -14.1% for the first, -13.4% for the second.

Going from `Cc1cc(C)c(CNC(=O)NCc2ccc3c(c2)CCC3)c(=O)[nH]1` to `COc1ccc2c(c1)CCCN2Cc1nc2c(cnn2C)c(=O)[nH]1`, the cytotoxicity at 70.5 h falls from -10.5% to -11.4%.

Compared with `CC(C)Oc1ncccc1CNC(=O)N1CCC1c1ccccc1` (stereo not given), `CC(C(=O)NCc1cccc(N2CC=CC2)c1)n1cccn1` (stereo not given) is lower in cytotoxicity at 70.5 h: 26.6% for the first, -7.35% for the second.

First: Cc1cc2n(n1)CC(CNCc1ccc(-n3cccn3)nc1)CN2 (stereo not given)
Second: CCc1nc2n(n1)CC(NCC(=O)Nc1ccc(Cl)cn1)CC2 (stereo not given)
The cytotoxicity at 70.5 h of the first is higher: 3.95% for the first, -18.9% for the second.

Compared with `CCOc1ccccc1C(CC(=O)Nc1nc(C)cs1)NC(C)=O` (stereo not given), `O=C(NCc1ccccn1)N(Cc1ccc(F)cc1F)C1CC1` is lower in cytotoxicity at 70.5 h: -8.99% for the first, -17.3% for the second.

First: O=C(Cc1ccc2c(c1)CCO2)N1CCN(c2cnccn2)CC1
Second: Cc1nc(C2CCCN2CC(=O)N2CCCc3ccccc32)no1 (stereo not given)
The cytotoxicity at 70.5 h of the first is higher: 23.2% for the first, -6.37% for the second.

Compared with `C=C(Cl)CN1CCC(C(=O)c2cc(F)ccc2F)CC1`, `CN(Cc1ccc(F)cc1)C(=O)CN1CCOC(Cn2cncn2)C1` (stereo not given) is higher in cytotoxicity at 70.5 h: -10.5% for the first, 40.3% for the second.

Going from `Cc1cc(C)cc(C2(C(=O)NC(C)Cn3ccnc3)CC2)c1` (stereo not given) to `Cc1ccc(CN(C)C(=O)CN2CCOC(Cn3cncn3)C2)o1` (stereo not given), the cytotoxicity at 70.5 h falls from 9.35% to 9.12%.

First: N#CC1(C(=O)N2CCN(Cc3cscn3)CC2)CCCC1
Second: N#CC1(C(=O)N2CCN(Cc3ccon3)CC2)CCC1
The cytotoxicity at 70.5 h of the first is higher: 14.2% for the first, -20% for the second.

Compared with `CCn1cnnc1C1CCN(C(=O)c2cnc(C3CC3)s2)CC1`, `CCCc1noc(CCC(=O)N2CCCC2c2noc(C3CC3)n2)n1` (stereo not given) is lower in cytotoxicity at 70.5 h: -10.2% for the first, -16.9% for the second.

First: CCc1nnc2n1CCN(C(=O)Cc1csc(-c3ccco3)n1)C2
Second: CCc1nnc2n1CCN(C(=O)c1ccc(C(F)(F)F)nc1C)C2
The cytotoxicity at 70.5 h of the first is lower: -15.6% for the first, -15.4% for the second.

In the case of `CCCc1noc(CCC(=O)N2CCCC2c2ccsc2)n1` (stereo not given), the cytotoxicity at 70.5 h is reported as -16.1%.

Reference: ChEMBL document CHEMBL3507680, “University of Dundee, Gates Library screen for HepG2 cell viability”
